These are literature values, as cited in US20210213091A1, “LIPOPHILIC ACTIVE AGENT INFUSED TOBACCO LEAVES AND/OR TOBACCO MATERIALS AND METHODS OF USE THEREOF” (priority 2018, published 2021).

`CC1=CC[C@H]2C[C@@H]1C2(C)C` [α-Pinene, (1S,5S)-2,6,6-Trimethylbicyclo[3.1.1]hept-2-ene]: the human pulmonary uptake was 60%.
